# Laboratory results taken from a melting point compilation (Tetko et al.; mined from patent text by program, amines drawn as free bases though some values may be those of a salt).
row,melting point,Compound
1,112 to 113 °C,CCOC(=O)c1ncsc1-c1cc(F)cc(F)c1
2,88 to 89 °C,CCC(=O)Nc1nn(C)c2c1sc1ccccc12
3,104 to 106 °C,COc1cncnc1N1CCN(CCCc2c[nH]c3ccc(-c4c(NC(C)C)c(=O)c4=O)cc23)CC1
4,96 to 98 °C,CC(C)(C)NC(=O)[C@@H]1CSCN1C(=O)OCc1ccccc1
5,256 to 258 °C,N#Cc1ccccc1NC(=O)Nc1ccc(S(N)(=O)=O)cc1
6,166 °C,CC(C)(C)OC(=O)CN(C(=O)CN1C(=O)c2ccccc2C1=O)c1ccc2c(c1)OCO2
7,115 to 117 °C,CCOC(=O)N(c1ccccc1)c1cc(Cl)ccc1-n1nc(C(=O)O)nc1CCl
8,122 °C,CCCN1N=C(c2ccc(F)cc2)c2cc(Cl)ccc2CS1(=O)=O
9,172 to 175 °C,O=C(O)CCCc1cc2cc(Cl)ccc2n1S(=O)(=O)c1ccc2nsnc2c1
10,130 to 132 °C,NS(=O)(=O)c1cccc(C(O)C(F)(F)F)c1 (centres undefined)
11,243 to 245 °C,N#Cc1ccc2c(c1)NC(=O)CO2
12,37 to 38 °C,CCOC(=O)c1cc(C#N)c(C=O)nc1NC(C)CC (centres undefined)
13,185 to 187 °C,CC(=O)SCC(Cc1noc2ccccc12)C(=O)Nc1cccc(C(=O)O)c1 (centres undefined)
14,165 to 166 °C,NC(=O)c1cc2ccccc2o1
15,259 to 261 °C,CC(=O)c1cc(C#N)c(=O)[nH]c1-c1ccccc1
16,186 to 188 °C,CC(C)(C)NC(=O)NCc1cccc2c1C(=O)N(C1CCC(=O)NC1=O)C2=O (centres undefined)
17,204 °C,CCOC(=O)c1nc2scc(CNC(=O)c3ccccc3)c2c(=O)[nH]1
18,178 °C,CCCc1nn(C)c2c(NCc3ccc(OC)c(Cl)c3)nc(CCC(=O)O)nc12
19,127 °C,CC#CCOc1ccc(SC(C(=O)NO)c2cccc(Cl)c2)cc1 (centres undefined)
20,80 to 82 °C,CCC(C)c1c(OC)ccc2c1oc1ccc(C#N)cc12 (centres undefined)
21,150 to 151 °C,CCCS(=O)(=O)Nc1ccc(C(=O)CC#N)cc1
22,142 to 145 °C,C[C@]1(CN2CCN(C(=O)CSc3ccc(Cl)cc3)CC2)Cn2cc([N+](=O)[O-])nc2O1
23,224 to 225 °C,COc1ncccc1-c1cc2cc(C(=O)NCCCN3CCOCC3)ccc2[nH]1

row,melting point,Compound
1,250 to 251 °C,CN(C)S(=O)(=O)c1cccc(-c2nc(N)nc(N)n2)c1
2,78 to 79 °C,COC(=O)c1c(C(F)F)nc(C(F)(F)F)c(C(=O)OC)c1CI
3,228 to 229 °C,COc1cccc(CNC(=O)c2nc3scc(CC(=O)O)c3c(=O)[nH]2)c1
4,168 to 169 °C,CC(C)c1csc(C(C)C)c1NC(=S)NC(C)(C)C
5,256 to 258 °C,COc1ccc(C(=O)C2C(=O)c3cccc(NC(=O)Oc4ccccc4)c3C2=O)cc1 (centres undefined)
6,> 300 °C,Cc1cc(Cl)cc(Cl)c1CNc1c(N[C@H](C)C(C)(C)C)c(=O)c1=O
7,233 to 234 °C,OCCNc1ccnc2cc3c(cc12)OCO3
8,72 to 73 °C,CCOC(=O)COc1ccc2c(c1)C(=O)CC1(CCCCC1)O2
9,96 °C,CC(c1ccc(Cl)cc1)N1C(=O)CC(Br)C1=O (centres undefined)
10,68 to 68.5 °C,CCOC(=O)NC1Cc2ccccc2C1
11,180 °C,CCN(CC)C(=O)c1ccc(-c2nc(=O)c3ccccc3s2)cc1
12,155 to 156 °C,CC(=S)NCC1CN(c2ccc(N3CCSCC3)c(F)c2)C(=O)O1 (centres undefined)
13,180 to 183 °C,CCc1nsc(NC(=O)C(C)c2ccc3oc(-c4c(Cl)cccc4Cl)nc3c2)c1Cl (centres undefined)
14,124 °C,Cc1cc(Sc2ccc(O)c(C)c2)ccc1O
15,87 to 88 °C,COC(=O)[C@H]1CCc2c(OC)cccc2[C@@H]1O
16,> 310 °C,CCC(C)NC1=NS(=O)(=O)c2cc(C(=O)O)ccc2N1 (centres undefined)
17,176 to 178 °C,COc1ccc(CC2SC(=O)NC2=O)cc1C(=O)NCc1ccc(C(F)(F)F)cc1 (centres undefined)
18,307 to 308 °C,COc1ccc2c(c1)S(=O)(=O)C(C#N)=C(C)N2
19,> 300 °C,COc1ccc(-c2ccc3c(c2)CCCc2c-3nc3ccc(F)cc3c2C(=O)O)cc1
20,116 to 119 °C,COC(=O)c1cc2c(Sc3ccc(C)cc3)cncc2s1
21,193 to 195 °C,Cc1ccc2c(=O)c(CS(C)(=O)=O)cn(C)c2c1
22,202 to 203 °C,Cc1ccc(C)c(NC(=O)NCC2(c3ccccc3)CCCCC2)c1

# The remaining lines, values behind:
row,Compound,melting point
1,NC(=O)Nc1ccc(N2CCN(c3ccncc3)CC2)cc1,> 250 °C
2,COc1ccc(C2=NN(C3CCCC3)C(=O)[C@H]3CC=CC[C@@H]23)cc1OC (relative stereo),131 to 133 °C
3,FC(F)(F)c1ccc(Oc2ccc(CCNc3ncnc4nccnc34)cc2)nc1,147 to 150 °C
4,CNC(=O)NCCCCC1CCSS1 (centres undefined),89 to 90 °C
5,CC(C)(CCCCCCC(C)(C)CCC(=O)O)CCC(=O)O,88 to 89 °C
6,COc1nc(Cl)nc(Cl)c1C#N,117 °C
7,O=C1C(=O)c2ccccc2C2=C1SCC1(CCN(CC(O)CN3CCOCC3)CC1)O2 (centres undefined),75 to 78 °C
8,Nc1ccc(Oc2ccc3cc(Oc4ccc(N)c(O)c4)ccc3c2)cc1O,239 to 241 °C
9,O=C(NCc1nc2cnc3cc(Br)ccc3c2n1CC1CCOCC1)C1CC1,140 °C
10,COc1cc2[nH]c(=O)c(=O)n(C)c2cc1[N+](=O)[O-],356 °C
11,CC(=O)OCCn1c2ccccc2c2ccccc21,73 to 74.5 °C
12,C=CCC1(O)CCC2C3CCC4=CC(=O)CCC4C3CCC21CCC (centres undefined),135 to 137 °C
13,CCCCOc1ccc(-c2nc(-c3ccc(Sc4ccccc4)cc3)nc(-c3ccc(OCCCC)cc3O)n2)c(O)c1,> 250 °C
14,Cc1cc(S(=O)(=O)N2c3ccc(Br)cc3-c3ccccc3C2C)ccc1O (centres undefined),193 to 195 °C
15,CSc1ccc(NS(=O)(=O)c2cccc3c(N(C)C)cccc23)nn1,188 to 190 °C
16,Cc1ccc(S(=O)(=O)N(Cc2ccc(C#N)cc2F)C2CCCC2)cc1,178 to 179 °C
17,CON=C(Cl)c1ccccc1S(N)(=O)=O,155 to 158 °C
18,O=C1c2ccccc2C(=O)N1CC(=O)N1c2ccccc2N(Cc2ccccc2F)C(=O)[C@H]2CCC[C@H]21 (relative stereo),250 to 253 °C
19,CSc1nncc(C(C)(C)C)n1,91 to 93 °C
20,COc1ccc(N2CCN(c3c(C)c(C)c4c(c3C)CC(C)(CN3CCCCC3)O4)CC2)cc1 (centres undefined),122 to 125 °C
21,CCCCCCCCCCCCCCCc1c([N+](=O)[O-])cc([N+](=O)[O-])c(OC)c1C(=O)O,68 to 75 °C
22,O=C(O)C(Cc1ccc(OCc2ccccc2)cc1)c1ccccc1 (centres undefined),133 to 137 °C
23,C(=C\c1cc(/C=C/c2ccc3[nH]ccc3c2)n[nH]1)/c1ccc(OCc2ccccn2)cc1,95 to 102 °C
24,OCC1CCC(c2ccccc2)CC1 (centres undefined),47.3 to 48.5 °C
25,Cc1nc2ccc(-c3ccc(OCC4(NC(=O)C5CC5)COC4)cc3)nn2c1-c1cnc(N)c(C(F)(F)F)c1,191 to 193 °C
26,O=C(O)C1CCN(C(=O)NS(=O)(=O)C=Cc2ccccc2)CC1,179 to 181 °C
27,O=c1c2c([nH]n1-c1ccc(Br)cc1)-c1cc(Cl)ccc1SC2,257 to 260 °C

row,Compound,melting point
1,Cc1ccc(-c2nnc(N3CCN(c4ccc(O)cc4)CC3)c3ccccc23)cc1,265 to 266 °C
2,Cc1ccc(Cn2c(=O)c3c(Cl)cc(Cl)cc3n(Cc3ccccc3)c2=O)cc1,166 to 169 °C
3,Nc1cscc1NC(=S)Nc1c(Cl)cccc1Cl,165 °C
4,O=c1c(Cc2cccnc2)cn2c3ccccc3c(=O)c3cccc1c32,266 to 268 °C
5,Clc1ccc([C@@H]2CNc3c(ccc4ccccc34)S2)cc1,205 to 206 °C
6,CCCCc1nc(C(F)(F)C(F)(F)F)c(CO)n1Cc1ccc(-c2ccccc2C(=O)O)cc1,190 to 191 °C
7,CCOc1cc2c(cc1OCC)C(C=Cc1ccc(O)c(OC)c1)=NN=C(C)C2,190 to 191 °C
8,O=c1[nH]nc(-c2ccc(-n3ccnc3)cc2)c2ccccc12,310 to 311 °C
9,CC1(N2C(=O)c3cccc(N)c3C2=O)CCC(=O)NC1=O (centres undefined),268 to 269 °C
10,CCN(CC)Cc1ccc2nc(-c3ccccc3)cc(OCc3ccccc3)c2c1,108 to 109 °C
11,Cc1cccc(-c2nc(C(C)C)[nH]c2-c2ccc(F)c(-c3cnn(C(C)C)c3)c2)n1,84 to 85 °C
12,COc1ccccc1OCC(O)CN1CCC(N2CCN(c3ccc(Cl)cc3)C2=O)CC1 (centres undefined),136 to 137 °C
13,CCCCO[PH](=O)Cc1cc(C(C)(C)C)c(O)c(C(C)(C)C)c1 (centres undefined),85 to 87 °C
14,CNC(=O)c1cc2nc(C(F)(F)F)ccc2c(Cl)c1NC(=O)c1cc(C(F)(F)F)nn1-c1ncccc1Cl,235 to 237 °C
15,C=CCOc1cc(N2C(=O)C3=C(CCCC3)C2=O)ccc1Cl,118 to 120 °C
16,O=C(Oc1ccc(Oc2ccc(C(F)(F)F)cn2)cc1)N1CCN(CCc2cccnc2)CC1,173 to 179 °C
17,O=C1c2cccnc2N(N2CCCCCC2)C2=NCCN12,217 to 219 °C
18,CCCCc1nc(C(O)C(C)(C)C)c(C#N)n1Cc1ccc(-c2ccccc2-c2nnnn2C(c2ccccc2)(c2ccccc2)c2ccccc2)cc1 (centres undefined),134 to 135 °C
19,O=C1OC(=Cc2ccc3ccccc3c2)C(=O)C(c2ccc(Cl)cc2)=C1O,274 to 275 °C
20,NS(=O)(=O)c1ccc(C2=C(c3ccc(Cl)c(Cl)c3)CCC2)cc1,134 to 135 °C
21,COCc1cccc(-c2coc3ccc(-c4nnc(C)o4)cc23)c1,111 to 112 °C
22,NS(=O)(=O)c1ccc(-c2noc(-c3cnn4c(C(F)(F)F)cc(-c5cccc(C(F)(F)F)c5)nc34)n2)cc1,300 °C
23,CC(C)(C)c1cc(CCC(CCc2cc(C(C)(C)C)c(O)c(C(C)(C)C)c2)OC(=O)c2ccccc2)cc(C(C)(C)C)c1O,115 to 116 °C
24,O=C(N[C@H]1CCC[C@@H](CN2CC=C(c3ccccc3)CC2)C1)c1ccccc1,200 to 204 °C
25,CCOC(CN1C(=O)C2=C(c3cccs3)N(CC(OCC)OCC)C(=O)C2=C1c1cccs1)OCC,167 to 169 °C
26,CCCCCCCCC#CCC#CCC#CCS(=O)(=O)CC(=O)NCC,83 °C
27,CNC(=O)CCCCCc1cccc2cncn12,118 to 122 °C
